# Results from the supplement of paper PMC10307832.
# Legend:
# Assay in all cases: relative viability (nuclei count vs DMSO), 5 days (fraction); higher = more cells survive
# [1] = compound: CCC1=CN=CN=C1N2CCN(CC2)CC3=NC4=C(N3)C=C(C=C4)C(F)(F)F + CS(=O)(=O)CCNCc1ccc(-c2ccc3ncnc(Nc4ccc(OCc5cccc(F)c5)c(Cl)c4)c3c2)o1 [Lapatinib] (partner 2 µM)
# Procedure, shortened: (§1)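 Relative viability was taken as the ratio of nuclei in treated wells to nuclei in vehicle wells. Lung cancer cell lines in 1536-well plates received compounds by pin tool one day after seeding, either one drug alone or a fixed anchor-drug dose plus five library-drug doses (not always all listed) in √10 steps. Nuclei were counted on 4× images after 5 days of treatment, and values are medians of duplicate plates.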
# Mirin + Trametinib = compound: N=C1NC(=O)/C(=C/c2ccc(O)cc2)S1 [Mirin] + CC(=O)Nc1cccc(-n2c(=O)n(C3CC3)c(=O)c3c(Nc4ccc(I)cc4F)n(C)c(=O)c(C)c32)c1 [Trametinib] (partner 0.02 µM)
# Procedure, shortened: as §1
# Mirin + Palbociclib = compound: N=C1NC(=O)/C(=C/c2ccc(O)cc2)S1 [Mirin] + CC(=O)c1c(C)c2cnc(Nc3ccc(N4CCNCC4)cn3)nc2n(C2CCCC2)c1=O [Palbociclib] (partner 0.5 µM)
# Procedure, shortened: as §1
# Mirin + Crizotinib = compound: N=C1NC(=O)/C(=C/c2ccc(O)cc2)S1 [Mirin] + C[C@@H](Oc1cc(-c2cnn(C3CCNCC3)c2)cnc1N)c1c(Cl)ccc(F)c1Cl [Crizotinib] (partner 1 µM)
# Procedure, shortened: as §1
Cell Line,relative viability ([1]; first compound 0.04 µM),relative viability ([1]; first compound 0.1265 µM),relative viability ([1]; first compound 0.4 µM),relative viability ([1]; first compound 1.265 µM),relative viability ([1]; first compound 4 µM),relative viability (Mirin + Trametinib; first compound 0.25 µM),relative viability (Mirin + Trametinib; first compound 0.7906 µM),relative viability (Mirin + Trametinib; first compound 2.5 µM),relative viability (Mirin + Trametinib; first compound 7.906 µM),relative viability (Mirin + Trametinib; first compound 25 µM),relative viability (Mirin + Palbociclib; first compound 0.25 µM),relative viability (Mirin + Palbociclib; first compound 0.7906 µM),relative viability (Mirin + Palbociclib; first compound 2.5 µM),relative viability (Mirin + Palbociclib; first compound 7.906 µM),relative viability (Mirin + Palbociclib; first compound 25 µM),relative viability (Mirin + Crizotinib; first compound 0.25 µM),relative viability (Mirin + Crizotinib; first compound 2.5 µM),relative viability (Mirin + Crizotinib; first compound 25 µM),relative viability (Mirin + Crizotinib; first compound 0.7906 µM),relative viability (Mirin + Crizotinib; first compound 7.906 µM)
NCI-H650,0.73,0.762,1.21,1.01,1.06,1.08,0.93,0.938,0.968,0.88,0.306,0.399,0.333,0.265,0.38,0.726,0.656,0.673,–,–
NCI-H661,0.646,0.437,0.411,–,0.475,0.59,0.722,0.628,0.482,0.575,0.416,0.426,0.406,0.369,0.401,–,0.861,1.17,1.01,–
EKVX,0.212,0.198,0.227,0.174,0.216,0.373,0.246,0.382,0.35,0.376,0.367,0.376,0.302,0.365,0.412,0.839,1.1,1.1,0.811,0.947
NCI-H520,0.846,0.862,0.857,0.588,0.729,0.542,0.571,0.659,0.603,0.477,0.214,0.267,0.245,0.188,0.138,0.993,0.715,0.377,0.715,0.631
LCLC-97TM1,1.02,0.697,0.828,0.877,0.8,0.172,0.179,0.235,0.176,0.165,0.227,0.236,0.192,0.152,0.198,0.316,0.259,0.233,0.317,0.218
COR-L23,0.979,0.914,0.74,0.781,0.92,0.559,0.522,0.56,0.345,0.652,0.369,0.299,0.245,0.268,0.341,0.69,0.75,0.617,0.828,0.556
NCI-H1355,1,0.812,0.952,0.844,1.1,0.457,0.482,0.48,0.374,0.399,0.395,0.427,0.41,0.412,0.443,1.07,1.02,1.1,1.18,1.04
NCI-H1666,0.625,0.579,0.482,0.544,0.616,0.909,0.764,0.77,0.607,0.772,0.684,0.665,0.64,0.627,0.662,0.918,1.03,0.66,1.02,0.852
EPLC-272H,0.854,0.807,0.853,0.913,0.975,0.308,–,0.281,0.3,0.317,0.283,–,0.339,0.345,0.353,0.83,0.853,0.779,–,0.671
NCI-H1651,0.839,0.827,0.818,0.787,0.87,0.809,0.875,0.886,0.767,0.855,0.477,0.561,0.53,0.497,0.516,0.827,0.849,0.821,0.875,0.877
NCI-H2087,1.07,0.963,1.08,0.914,0.818,0.292,0.211,0.161,0.19,0.209,0.227,0.297,0.249,0.133,0.318,0.898,0.849,1.16,1.08,0.771
HCC-44,0.932,0.956,0.975,1.05,0.85,0.981,1.36,1.08,1.06,1.09,1,1.1,0.91,0.975,1.15,0.817,0.783,1.07,0.85,0.795
RERF-LC-KJ,0.81,0.811,0.863,0.79,0.825,0.897,0.975,0.782,0.842,0.816,1.14,1.09,1.2,1.2,1.1,0.845,0.821,0.913,0.894,0.845
LOU-NH91,0.761,0.794,0.77,0.644,0.844,0.789,0.809,0.795,0.823,1.01,0.548,0.569,0.529,0.519,0.555,0.759,0.718,0.902,–,0.77
PC-3 [JPC-3],0.473,0.425,0.374,0.441,0.523,0.669,0.72,0.7,0.73,0.786,0.596,0.574,0.551,0.524,0.631,1,1.02,1.11,1.1,1.03
NCI-H2126,0.772,0.713,0.708,0.736,0.838,0.604,0.568,0.552,0.56,0.501,0.342,0.361,0.332,0.394,0.396,1.02,0.981,1.21,1.07,0.994
LU99A,0.964,0.989,0.95,0.926,0.948,0.515,0.496,0.56,0.395,0.55,0.412,0.339,0.425,0.358,0.339,0.526,0.499,0.37,0.463,0.499
BEN,0.535,0.731,0.597,0.492,0.437,0.942,1.01,1.16,0.825,0.591,0.485,0.468,0.423,0.424,0.426,0.855,1.01,0.43,0.753,0.82
SW 1573,1.12,0.949,1,1,1.08,0.647,0.557,0.567,0.51,0.369,0.366,0.42,0.375,0.42,0.292,0.681,0.838,0.624,0.643,0.86
NCI-H1975,1.16,0.824,0.851,0.739,0.846,0.379,0.337,0.365,0.337,0.55,0.7,0.57,0.555,0.606,0.583,0.974,0.93,0.943,1.02,0.954
SK-LU-1,0.924,0.855,0.926,–,0.902,0.519,0.519,0.568,0.383,0.538,0.433,0.393,0.417,0.348,0.405,0.888,1.01,0.564,1.05,0.765
NCI-H460,1.09,0.973,0.878,0.812,0.936,0.142,0.172,0.206,0.102,0.171,0.18,0.148,0.157,0.157,0.123,0.887,0.935,0.915,1.15,0.875
HCC-78,0.458,0.363,0.726,0.548,0.463,0.647,0.715,0.885,0.709,0.72,0.536,0.41,0.453,0.505,0.381,0.362,0.371,0.41,0.381,0.386
NCI-H1915,0.927,0.89,0.995,0.957,1.06,0.29,0.332,0.28,0.328,0.389,0.502,0.48,0.503,0.504,0.438,0.863,0.87,1.03,–,0.809
